Source: patent US10034886B2, “GLP-1 receptor modulators” (Celgene International II SÀRL, priority 2014, dated 2018)
Where two headings read alike, the source gives them in different places.

Target: T1, GLP-1R (Homo sapiens, UniProt P43220)
T1 construct: host or cells: GLP-1R CRE-bla CHO-K1 cells
Experiment: EC20 GLP-1(9-36) PAM cAMP assay: dose response of compound in the presence of fixed concentration of GLP-1(9-36)
Format: cell-based
Conditions: GLP-1R CRE-bla CHO-K1 cells, read-out: EC20 GLP-1(9-36) PAM EC50
Method in brief: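 Positive allosteric modulation read as cAMP accumulation: compound titrations (12 points) combined with an EC20 level of GLP-1(9-36) on CHO-K1 GLP-1R CRE-bla cells, IBMX present, 30 min, 37 °C, pH 7.4 buffer. Luminescence converted to cAMP via standards; non-linear fit gave EC50 and Emax.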

[1] = compound dose response with fixed concentration of GLP-1(9-36)
[2] = dose response of compound in presence of fixed concentration of GLP-1(9-36)

T1 sequence (P43220 24-463): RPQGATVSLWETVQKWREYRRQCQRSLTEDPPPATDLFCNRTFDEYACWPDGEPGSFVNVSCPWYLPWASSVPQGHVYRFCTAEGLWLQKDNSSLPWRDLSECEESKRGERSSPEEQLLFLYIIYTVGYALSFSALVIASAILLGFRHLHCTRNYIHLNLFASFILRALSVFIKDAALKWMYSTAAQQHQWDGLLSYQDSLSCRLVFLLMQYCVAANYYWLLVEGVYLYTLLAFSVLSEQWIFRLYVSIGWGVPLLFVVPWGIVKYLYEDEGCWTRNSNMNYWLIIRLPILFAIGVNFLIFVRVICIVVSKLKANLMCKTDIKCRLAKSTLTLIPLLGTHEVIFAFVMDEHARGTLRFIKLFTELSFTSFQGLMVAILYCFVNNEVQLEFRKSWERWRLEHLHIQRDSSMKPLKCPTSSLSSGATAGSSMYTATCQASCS
T1 sequence (P01275 100-127 partner limits assumed): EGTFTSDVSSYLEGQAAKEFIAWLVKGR

Compound	EC50 [1]	EC50 [2]
CCC[C@H]1CC[C@H](C2CCN(c3cnc(-c4ccc(C[C@H](NC(=O)c5ccc(C(C)(C)C)s5)C(=O)NCC(=O)O)cc4)nc3)CC2)CC1 [Compound 1461]	< 0.8 µM	
CCCCCCCOc1ccc(-c2cnc(-c3ccc(C[C@H](NC(=O)c4ccc(C(C)(C)C)cc4)C(=O)NCCC(=O)O)cc3)nc2)cc1F [Compound 697]		2.5 to 5 µM
CCCCCCCOc1ccc(-c2cnc(-c3ccc(C[C@H](NC(=O)c4ccc(C(C)(C)C)s4)C(=O)NC(C(=O)O)c4cccc(S(C)(=O)=O)c4)cc3)nc2)cc1 (stereo partly shown) [Compound 501]		< 0.8 µM
CCCCCCCOc1ccc(-c2cnc(-c3ccc(C[C@H](NC(=O)c4ccc(C(C)(C)C)s4)C(=O)N[C@@H](CC(=O)NCC(=O)O)C(=O)O)cc3)nc2)cc1 [Compound 515]		< 0.8 µM
CC(C)(C)c1ccc(C(=O)N[C@@H](Cc2ccc(-c3ncc(-c4ccc(C5CCCC5)cc4)cn3)cc2)C(=O)N2CC[C@H](C(=O)O)C2)s1 [Compound 1084]		< 0.8 µM
C[C@@H](NC(=O)[C@H](Cc1ccc(-c2ncc(-c3cccc(N4CCCCC4)c3)cn2)cc1)NC(=O)c1ccc(C(C)(C)C)s1)C(=O)O [Compound 1284]	0.8 to 2.5 µM	
CC(C)(C)c1ccc(C(=O)N[C@@H](Cc2ccc(-c3ncc(N4CCC(c5ccc(Cl)cc5)CC4)cn3)cc2)C(=O)N2CC(C(=O)O)C2)s1 [Compound 1478]	0.8 to 2.5 µM	
CC(C)(C)c1ccc(C(=O)N[C@@H](Cc2ccc(-c3ncc(-c4ccc(-c5ccc(OC(F)(F)F)cc5)cc4)cn3)cc2)C(=O)O)s1 [Compound 1356, (S)-2-(5-(tert-butyl)thiophene-2-carboxamido)-3-(4-(5-(4′-(trifluoromethoxy)-[1,1′-biphenyl]-4-yl)pyrimidin-2-yl)phenyl)propanoic acid]	< 0.8 µM	
CCCCCCCOc1ccc(-c2cnc(-c3ccc(C[C@H](NC(=O)c4ccc(C(C)(C)C)s4)C(=O)N4CC(C(=O)NS(C)(=O)=O)C4)cc3)nc2)cc1 [Compound 650]		< 0.8 µM
CCCCCCCOc1ccc(-c2ccc(-c3ccc(C[C@H](NC(=O)c4ccc(C(C)(C)C)s4)C(=O)N[C@H](C)C(=O)O)cc3)nc2)cc1 [Compound 811]		0.8 to 2.5 µM
CCCCCCCOc1ccc(-c2cnc(-c3ccc(C[C@H](NC(=O)c4ccc(C(C)(C)C)s4)C(=O)N[C@@H](C(=O)O)C(C)c4ccccc4)cc3)nc2)cc1 (stereo partly shown) [Compound 898]		2.5 to 5 µM
CCCCCCCOc1ccc(-c2cnc(-c3ccc(C[C@H](NC(=O)c4ccc(C(C)(C)C)cc4OC)C(=O)NC(C(=O)O)C(O)c4ccccc4)cc3)nc2)cc1 (stereo partly shown) [Compound 952]		2.5 to 5 µM
CCC(CC)Oc1ccc(-c2cnc(-c3ccc(C[C@H](NC(=O)c4ccc(C(C)(C)C)s4)C(=O)N4CC(C(=O)O)C4)cc3)nc2)cc1 [Compound 919]		5 to 10 µM
CC(C)(C)c1ccc(C(=O)N[C@@H](Cc2ccc(-c3ncc(-c4ccc(-c5ccc(Cl)cc5)cc4F)cn3)cc2)C(=O)N2CC(C(=O)O)C2)s1 [Compound 1190]		< 0.8 µM
CCCCCCCOc1ccc(-c2cnc(-c3ccc(C[C@H](NC(=O)c4ccc(Oc5ccccc5)cc4)C(=O)N[C@H](C)C(=O)O)cc3)nc2)cc1 [Compound 824]		< 0.8 µM
CCCCCCCOc1ccc(-c2cnc(-c3ccc(C[C@H](NC(=O)c4ccc(OC)cc4)C(=O)N4CC[C@H](C(=O)O)C4)cc3)nc2)cc1 [Compound 846]		2.5 to 5 µM
CC(C)(C)COc1ccc(-c2cnc(-c3ccc(C[C@H](NC(=O)c4ccc(C(C)(C)C)cc4)C(=O)NCCC(=O)O)cc3)nc2)cc1 [Compound 680]		5 to 10 µM
CCCCc1ccc(-c2ccc(-c3cnc(-c4ccc(C[C@H](NC(=O)c5ccc(C(C)(C)C)s5)C(=O)N5CC(C(=O)O)C5)cc4)nc3)cc2)cc1 [Compound 1394]	< 0.8 µM	
CCCCOc1ccc(-c2cnc(-c3ccc(C[C@H](NC(=O)c4ccc(C(C)(C)C)s4)C(=O)N[C@H](C)C(=O)O)cc3)nc2)cc1 [Compound 733]		0.8 to 2.5 µM
CCCCCCc1nc(-c2cnc(-c3ccc(C[C@H](NC(=O)c4ccc(C(C)(C)C)cc4)C(=O)O)cc3)nc2)no1 [Compound 248, (S)-2-(4-(tert-butyl)benzamido)-3-(4-(5-(5-hexyl-1,2,4-oxadiazol-3-yl)pyrimidin-2-yl)phenyl)propanoic acid]		2.5 to 5 µM
CCCCCCCOc1ccc(-c2cnc(-c3ccc(C[C@H](NC(=O)c4ccc(C(C)(C)C)cc4)C(=O)N4CCC[C@H]4C(=O)O)cc3)nc2)cc1 [Compound 660]		0.8 to 2.5 µM
CCCCCCCOc1ccc(-c2cnc(-c3ccc(C[C@H](NC(=O)c4ccc(C(C)(C)CC)cc4)C(=O)N4CCC[C@H]4C(=O)O)cc3)nc2)cc1 [Compound 1082]		0.8 to 2.5 µM
CC(C)c1cccc(-c2cnc(-c3ccc(C[C@H](NC(=O)c4ccc(C(C)(C)C)s4)C(=O)N[C@H](C)C(=O)O)cc3)nc2)c1 [Compound 1033]		5 to 10 µM
CC(C)CCOc1ccc(-c2cnc(-c3ccc(C[C@H](NC(=O)c4ccc(C(C)(C)C)s4)C(=O)N4CC(C(=O)O)C4)cc3)nc2)cc1 [Compound 799]		0.8 to 2.5 µM
CC(C)(C)c1ccc(C(=O)N[C@@H](Cc2ccc(-c3ncc(-c4ccc(-c5ccc(OC(F)(F)F)cc5)cc4F)cn3)cc2)C(=O)N2CC(C(=O)O)C2)s1 [Compound 1188]		< 0.8 µM

Compound	EC50 [1]	EC50 [2]
CCCCCCCOc1ccc(-c2cnc(-c3ccc(C[C@H](NC(=O)c4ccc(C(C)(C)C)cc4)C(=O)N[C@@H](CCC(N)=O)C(=O)O)cc3)nc2)cc1 [Compound 399]		< 0.8 µM
CCCc1ccc(-c2ccc(-c3cnc(-c4ccc(C[C@H](NC(=O)c5ccc(C(C)(C)C)s5)C(=O)N[C@H](C)C(=O)O)cc4)nc3)cc2)cc1 [Compound 1136]		0.8 to 2.5 µM
CCCCCCCOc1ccc(-c2cnc(-c3ccc(C[C@H](NC(=O)c4ccc(C(C)(C)C)s4)C(=O)N[C@@H](CN)C(=O)O)cc3)nc2)cc1 [Compound 394]		2.5 to 5 µM
CCCCCCCOc1ccc(-c2cnc(-c3ccc(C[C@H](NC(=O)c4ccc(C(C)(C)C)cc4)C(=O)N[C@H](CO)C(=O)O)cc3)nc2)cc1 [Compound 417]		< 0.8 µM
CCCCCCCOc1ccc(-c2cnc(-c3ccc(C[C@H](NC(=O)c4cnn(C(C)(C)C)c4)C(=O)N4CCC[C@H]4C(=O)O)cc3)nc2)cc1 [Compound 1068]		0.8 to 2.5 µM
CCCCCCCOc1ccc(-c2cnc(-c3ccc(C[C@H](NC(=O)c4ccc(C(C)(C)C)s4)C(=O)NCCN(C)C)cc3)nc2)cc1 [Compound 385]		5 to 10 µM
CCC[C@H]1CC[C@H](C2CCN(c3cnc(-c4ccc(C[C@H](NC(=O)c5ccc(C(C)(C)C)s5)C(=O)NC(CCCOC)C(=O)O)cc4)nc3)CC2)CC1 (stereo partly shown) [Compound 1458]	< 0.8 µM	
CC[C@H]1CC[C@H](c2ccc(-c3cnc(-c4ccc(C[C@H](NC(=O)c5ccc(Cl)cc5)C(=O)O)cc4)nc3)cc2)CC1 [Compound 1386]	0.8 to 2.5 µM	
CCCCCCCOc1ccc(-c2cnc(-c3ccc(C[C@@H](NC(=O)c4ccc(C(C)(C)C)cc4)C(=O)O)cc3)nc2)cc1 [Compound 191, (R)-2-(4-(tert-butyl)benzamido)-3-(4-(5-(4-(heptyloxy)phenyl)pyrimidin-2-yl)phenyl)propanoic acid]		0.8 to 2.5 µM
CC(C)(C)c1ccc(COc2ccc(-c3cnc(-c4ccc(C[C@H](NC(=O)c5ccc(C(C)(C)C)cc5)C(=O)NCCC(=O)O)cc4)nc3)cc2)cc1 [Compound 713]		0.8 to 2.5 µM
CCCCCCCOc1ccc(-c2cnc(-c3ccc(C[C@H](NC(=O)c4ccc(C(C)(C)C)cc4)C(=O)NC(C(=O)O)c4cccs4)cc3)nc2)cc1 (stereo partly shown) [Compound 455]		< 0.8 µM
CCCOc1ccc(-c2ccc(-c3cnc(-c4ccc(C[C@H](NC(=O)c5ccc(C(C)(C)C)s5)C(=O)N5CC(C(=O)O)C5)cc4)nc3)c(F)c2)cc1 [Compound 1331]	< 0.8 µM	
CCCCCCCOc1ccc(-c2cnc(-c3ccc(C[C@H](NC(=O)c4ccc(C(C)(C)C)s4)C(=O)NC(C(=O)O)C(O)C(C)(C)C)cc3)nc2)cc1 (stereo partly shown) [Compound 918]		5 to 10 µM
CCCCCc1ccc(-c2ccc(-c3cnc(-c4ccc(C[C@H](NC(=O)c5ccc(C(C)(C)C)s5)C(=O)N[C@H](C)C(=O)O)cc4)nc3)cc2)cc1 [Compound 1308]	0.8 to 2.5 µM	
CCCCCCCCOc1ccc(-c2cnc(-c3ccc(C[C@H](NC(=O)c4ccc(C(C)(C)C)s4)C(=O)N[C@H](C)C(=O)O)cc3)nc2)cc1 [Compound 736]		< 0.8 µM
C[C@@H](NC(=O)[C@H](Cc1ccc(-c2ncc(-c3ccc(-c4ccc(OC(F)(F)F)cc4F)cc3)cn2)cc1)NC(=O)c1ccc(C(C)(C)C)s1)C(=O)O [Compound 1146]		< 0.8 µM
CCCCCCCOc1ccc(-c2cnc(-c3ccc(C[C@H](NC(=O)c4ccc(C(C)(C)C)s4)C(=O)N4CC5(CC(C(=O)O)C5)C4)cc3)nc2)cc1 [Compound 877]		0.8 to 2.5 µM
CCCc1ccc(C2CCN(c3cnc(-c4ccc(C[C@H](NC(=O)c5ccc(C(C)(C)C)s5)C(=O)N5CC(C(=O)O)C5)cc4)nc3)CC2)cn1 [Compound 1498]	0.8 to 2.5 µM	
CCOc1cc(OC(F)(F)F)cc(-c2cnc(-c3ccc(C[C@H](NC(=O)c4ccc(C(C)(C)C)s4)C(=O)N[C@H](C)C(=O)O)cc3)nc2)c1F [Compound 1045]		2.5 to 5 µM
CCCCCCCOc1ccc(-c2cnc(-c3ccc(C[C@H](NC(=O)c4ccc(CCC)s4)C(=O)N4CC(C(=O)O)C4)cc3)nc2)cc1 [Compound 1107]		0.8 to 2.5 µM
C[C@@H](NC(=O)[C@H](Cc1ccc(-c2ncc(-c3ccc([C@H]4CC[C@@H](C(C)(C)C)CC4)cc3)cn2)cc1)NC(=O)c1ccc(C(C)(C)C)s1)C(=O)O [Compound 1144]		0.8 to 2.5 µM
CCCCCCCOc1ccc(-c2ccc(-c3ccc(C[C@H](NC(=O)c4ccc(C(C)(C)C)cc4)C(=O)O)cc3)nn2)cc1 [Compound 273]		0.8 to 2.5 µM
CCCCCCCOc1ccc(-c2cnc(-c3ccc(C[C@H](NC(=O)c4ccc(CC(C)C)s4)C(=O)N[C@H](C)C(=O)O)cc3)nc2)cc1 [Compound 813]		0.8 to 2.5 µM
C[C@@H](NC(=O)[C@H](Cc1ccc(-c2ncc(-c3cc4ccccc4cc3O)cn2)cc1)NC(=O)c1ccc(C(C)(C)C)s1)C(=O)O [Compound 1008]		5 to 10 µM
